{"source": "patent US20210115398A1", "about": "“CORNEAL TISSUE CULTURE SYSTEM AND CORNEAL TISSUE CULTURE METHOD THEREOF” (Chang Gung Memorial Hospital, Linkou, priority 2019, published 2021)", "key": {"[1]": {"system": "rabbit corneal endothelial cells", "assay": "Dose-response test: rabbit corneal endothelial cells co-cultivated with rabbit corneal stroma cells", "format": "cell-based", "conditions": "20 μmol/L LPA, 5 days of cultivation, co-culture with corneal stroma cells", "method": "The tissue culture media (DMEM, 10% FBS, 25 μg/mL gentamycin) added with 0 μmol/L, 10 μmol/L, 20 μmol/L, and 100 μmol/L of LPA were used for co-cultivating the rabbit corneal endothelial cells and the rabbit corneal stroma cells at 37° C. with 5% CO2. After 5 days of cultivation, the cell number of the rabbit corneal endothelial cells of each groups were calculated and shown in FIG. 6. […] According to the result, the tissue culture media used for the following experiments was added with 20 μmol/L LPA."}, "[2]": {"system": "corneal endothelial cells of rabbit corneal tissue", "assay": "Evaluation of the corneal endothelial cell density of the corneal tissue (tissue culture dish 100)", "format": "cell-based", "conditions": "20 μmol/L LPA", "method": "The rabbit corneal tissues were placed individually in the tissue culture dishes 100, cultivated with the tissue culture media (DMEM basal medium, 10% FBS, and 25 μg/mL gentamycin) added with 20 μmol/L LPA (Example) or without LPA (Comparative example), and incubated at 37° C. with 5% CO2, wherein a portion of the corneal epithelium layer of the rabbit corneal tissues faced toward the first direction A and contacted with air and the corneal endothelium layer contacted with the tissue culture media. After 7 days of cultivation, the cell morphology and the analysis of cell density of the corneal endothelium layer were shown in FIG. 7 and FIG. 8. The density of the corneal endothelial cells of the example on day 0 was 3766.7±332.9 cells/mm^2, 4572.2±179.8 cells/mm^2 on day 5, and 4950.0±304.1 cells/mm^2 on day 7. […] According to the result, the corneal endothelial cell density may be increased in the LPA-treated example."}, "[3]": {"system": "corneal endothelial cells of rabbit corneal tissue", "assay": "Morphology of the corneal endothelial cells of the corneal tissue (ZO-1 immunostaining)", "format": "cell-based", "conditions": "10 μmol/L LPA, 7 days", "method": "(§1) The rabbit corneal tissues were placed individually in the tissue culture dishes 100, cultivated with the tissue culture media (DMEM basal medium, 10% FBS, and 25 μg/mL gentamycin) added with 10 μmol/L LPA (Example) or without LPA (Comparative example), and incubated at 37° C. with 5% CO2 for 7 days, wherein a portion of the corneal epithelium layer of the rabbit corneal tissues faced toward the first direction A and contacted with air and the corneal endothelium layer contacted with the tissue culture media. The corneal endothelium layer was immunostained for ZO-1 on day 0 and day 7 for observing the cell morphology of the corneal endothelial cells of the corneal tissue."}, "[4]": {"system": "corneal endothelial cells of rabbit corneal tissue", "assay": "Evaluation of the cell proliferation of the corneal tissue (BrdU labeling)", "format": "cell-based", "conditions": "10 μmol/L LPA, 7 days, BrdU from day 5 to day 7", "method": "as §1, with “Bromodeoxyuridine (BrdU)” for “The corneal endothelium layer”, “added to the culture media from” for “immunostained for ZO-1 on”, “5 to” for “0 and”, “proliferation” for “cell morphology”, “cells.” for “corneal endothelial cells of the corneal tissue.”"}, "[5]": {"system": "damaged rabbit corneal endothelium layer", "assay": "Healing effect of the damaged corneal endothelium layer of the corneal tissue (Alizarin Red S staining)", "format": "cell-based", "conditions": "20 μmol/L LPA", "method": "A polyvinylidene fluoride (PVDF) filter membrane with regularly punched-out holes was used to cover the rabbit corneal endothelium layer; exposing the inner damage zone (I) scraped with Cellulose Eye Spears. The rest area of the corneal endothelium layer was defined as the outer damage zone (O). The damaged corneal tissues were placed individually in the tissue culture dishes 100, cultivated with the tissue culture media (DMEM basal medium, 10% FBS, and 25 μg/mL gentamycin) added with 20 μmol/L LPA (Example) or without LPA (Comparative example), and incubated at 37° C. with 5% CO2, wherein a portion of the corneal epithelium layer of the rabbit corneal tissues faced toward the first direction A and contacted with air and the corneal endothelium layer contacted with the tissue culture media. The inner damage zone (I) and the outer damage zone (O) of the corneal tissues on day 0 and day 2 were observed using Alizarin Red S staining. The morphology of the corneal tissue stained by Alizarin Red S was shown in FIG. 12, wherein the stained area (brown color) represented the corneal […] of the inner damage zone (I) and the unstained area represented the corneal endothelial cells of the outer zone (O). […] Refer to FIG. 14, the corneal endothelial cell density of the inner damage zone of the LPA-treated example was 1358±8 0.4 cells/mm^2, and the circularity and aspect ratio of the corneal endothelial cells were 0.68±0.15 and 2.39±1.14. However the corneal endothelial cell density of the inner damage zone of the comparative example was 900.0±198.4 cells/mm^2, and the circularity and aspect ratio of the corneal endothelial cells were 0.43±0.14 and 4.91±2.43. According to the results, the addition of LPA can stimulate cell proliferation of the damaged corneal tissue. Also, LPA enhanced the repopulation of the neighbor corneal endothelial cells to the damage zones."}, "[6]": {"system": "corneal endothelial cells of transplanted damaged corneal tissue", "assay": "Evaluation of corneal tissue transplantation into rabbit eyes", "format": "in vivo", "conditions": "damaged cornea cultivated 2 days with 20 μmol/L LPA, day 6", "method": "The damaged corneal tissues were prepared using the PVDF filter membrane described above (please refer to the above paragraph). Then, those damaged corneal tissues were placed individually in the tissue culture dishes 100, cultivated with the tissue culture media (DMEM basal medium, 10% FBS, and 25 μg/mL gentamycin) added with 20 μmol/L LPA (Example) or without LPA (Comparative example 1), and incubated at 37° C. with 5% CO2, wherein a portion of the corneal epithelium layer of the rabbit corneal tissues faced toward the first direction A and contacted with air and the corneal endothelium layer contacted with the tissue culture media. After 2 days of cultivation, the damaged corneal tissues were transplanted into rabbit eyes. In addition, total corneal endothelium scrapping and undamaged mock donor corneas were also prepared to serve as comparative examples 2 and 3. External eye photography was taken in the rabbits after transplantation on day 0 and day 6, respectively. Following sacrifice on day 6, the corneal endothelial cells were stained with Alizarin Red S for observations of the cell morphology of the corneal endothelial cells in all density zones (A) (average of high-density and low-density zones) and cell shape in low-density zone (L) were examined. […] Please refer to FIG. 16 showing the analysis of the corneal endothelial cell density, circularity, and aspect ratio. The corneal endothelial cell density of the example was 2200.0±90.1 cells/mm^2, and the circularity and the aspect ratio of the corneal endothelial cells of example 1 were 0.84±0.05 and 1.35±0.02. However, in comparative example 1, the cell density was 1700.0±288.3 cells/mm^2, the circularity was 0.69±0.12, and the aspect ratio was 2.12±1.13."}, "[7]": {"system": "human corneal stromal cells", "assay": "Gene expression analysis using cDNA microarray", "format": "cell-based", "conditions": "20 μmol/L LPA, 2 days", "method": "(§2) The gene expression profiling and the cytokine of the human corneal stromal cells were analyzed using cDNA microarray chip and Cytokine Array G5 chip. The human corneal stromal cells were cultured with culture media (DMEM basal medium, 10% FBS, and 25 μg/mL gentamycin) added with 20 μmol/L LPA (served as an Example) or without adding LPA (Comparative example) and incubated at 37° C. with 5% CO2. After 2 days of cultivation, the total RNA from the human corneal stromal cells in example and comparative example were isolated with the TRIzol reagent and purified using RNeasy column. After amplification and labeling the total RNA samples, GeneChip hybridization was performed and a GeneArray G7 scanner was used to scan the results. The culture media from the example and the comparative example were collected and the cytokines were analyzed using a human cytokine antibody array. […] It was confirmed that LPA stimulated the proliferation of the endothelial cells of the corneal tissue via two pathways including directly affecting the endothelial cells and stimulating the secretion of CCL20 and IL-1β from the […]."}, "[8]": {"system": "human corneal stromal cells", "assay": "Cytokine analysis of culture media using human cytokine antibody array", "format": "cell-based", "conditions": "20 μmol/L LPA, 2 days", "method": "as §2"}, "[9]": {"system": "corneal endothelial cells of human corneal residual tissue", "assay": "Proliferation and morphology of corneal endothelial cells of human corneal residual tissue (ZO-1 and Ki-67 immunostaining)", "format": "cell-based", "conditions": "20 μmol/L LPA, Day 7, tissue immersed", "method": "The cell morphology, cell density, and cell proliferation of the present evaluation were performed through immunostaining.\nOne-third of the human corneal residual tissue samples were used for immunostaining for ZO-1 directly (Day 0), while the remaining two-thirds were immersed and placed endothelial side up in the tissue culture media (DMEM basal medium, 10% FBS, and 25 μg/mL gentamycin) added with 20 μmol/L LPA (served as an Example) or without adding LPA (Comparative example) and incubated at 37° C. with 5% CO2. 7 days later, the tissues were cut into halves and subjected to immunostaining for ZO-1 and Ki-67 to evaluate the effects of LPA treatment on corneal endothelial cell density and cell proliferation. […] The corneal endothelial cell density of the LPA-treated example and the comparative example were 2848.8 cells/mm^2±331.7 cells/mm^2 and 2004.7 cells/mm^2±220.2 cells/mm^2."}}}
{"substance": "lysophosphatidic acid [LPA]", "values": [{"measurement": "corneal endothelial cell proliferation (cell number)", "setting": "[1]", "result": "significantly stimulated corneal endothelial cell proliferation"}, {"measurement": "density of the corneal endothelial cells", "setting": "[2]; day 0", "result": "3766.7±332.9", "unit": "cells/mm^2"}, {"measurement": "density of the corneal endothelial cells", "setting": "[2]; day 5", "result": "4572.2±179.8", "unit": "cells/mm^2"}, {"measurement": "density of the corneal endothelial cells", "setting": "[2]; day 7", "result": "4950.0±304.1", "unit": "cells/mm^2"}, {"measurement": "morphology of the corneal endothelial cells (ZO-1)", "setting": "[3]", "result": "not altered"}, {"measurement": "BrdU labeling cells", "setting": "[4]", "result": "35.2%±16.1%"}, {"measurement": "aspect ratio of the corneal endothelial cells", "setting": "[5]; day 2, inner damage zone", "result": "2.39±1.14"}, {"measurement": "circularity of the corneal endothelial cells", "setting": "[5]; day 2, inner damage zone", "result": "0.68±0.15"}, {"measurement": "repopulation of the inner damage zone (I)", "setting": "[5]; two days after tissue cultivation", "result": "repopulated by neighbor corneal endothelial cells"}, {"measurement": "aspect ratio of the corneal endothelial cells", "setting": "[6]", "result": "1.35±0.02"}, {"measurement": "circularity of the corneal endothelial cells", "setting": "[6]", "result": "0.84±0.05"}, {"measurement": "corneal endothelial cell density", "setting": "[6]", "result": "2200.0±90.1", "unit": "cells/mm^2"}, {"measurement": "transparency of the transplanted corneal tissue", "setting": "[6]", "result": "remained transparent"}, {"measurement": "Gene expression in stromal cells: 1L1RN (Interleukin 1 receptor antagonist)", "setting": "[7]", "result": 17.39, "unit": "fold change"}, {"measurement": "Gene expression in stromal cells: 1L7R (Interleukin 7 receptor)", "setting": "[7]", "result": 15.03, "unit": "fold change"}, {"measurement": "Gene expression in stromal cells: CCL5", "setting": "[7]", "result": 17.63, "unit": "fold change"}, {"measurement": "Gene expression in stromal cells: CCL7", "setting": "[7]", "result": 11.39, "unit": "fold change"}, {"measurement": "Gene expression in stromal cells: CCL8", "setting": "[7]", "result": 15.89, "unit": "fold change"}, {"measurement": "Gene expression in stromal cells: CCL20", "setting": "[7]", "result": 625.99, "unit": "fold change"}, {"measurement": "Gene expression in stromal cells: CSF3", "setting": "[7]", "result": 85.04, "unit": "fold change"}, {"measurement": "Gene expression in stromal cells: CXCL3", "setting": "[7]", "result": 11.31, "unit": "fold change"}, {"measurement": "Gene expression in stromal cells: CXCL5", "setting": "[7]", "result": 22.32, "unit": "fold change"}, {"measurement": "Gene expression in stromal cells: CXCL10", "setting": "[7]", "result": 20.97, "unit": "fold change"}, {"measurement": "Gene expression in stromal cells: EPGN", "setting": "[7]", "result": 10.85, "unit": "fold change"}, {"measurement": "Gene expression in stromal cells: ESM1", "setting": "[7]", "result": 20.11, "unit": "fold change"}, {"measurement": "Gene expression in stromal cells: IL1A (Interleukin 1 alpha)", "setting": "[7]", "result": 58.49, "unit": "fold change"}, {"measurement": "Gene expression in stromal cells: IL1B", "setting": "[7]", "result": 572.05, "unit": "fold change"}, {"measurement": "Gene expression in stromal cells: INHBA", "setting": "[7]", "result": 20.97, "unit": "fold change"}, {"measurement": "Gene expression in stromal cells: OLR1", "setting": "[7]", "result": 24.25, "unit": "fold change"}, {"measurement": "Cytokine content in media: CCL20", "setting": "[8]", "result": 3.26, "unit": "fold change"}, {"measurement": "Cytokine content in media: CSF3", "setting": "[8]", "result": 0.85, "unit": "fold change"}, {"measurement": "Cytokine content in media: IL1A", "setting": "[8]", "result": 0.80, "unit": "fold change"}, {"measurement": "Cytokine content in media: IL1B", "setting": "[8]", "result": 1.73, "unit": "fold change"}, {"measurement": "Ki-67-positive cells", "setting": "[9]", "result": "11.86%±2.80%"}, {"measurement": "corneal endothelial cell density", "setting": "[9]", "result": 2848.8, "unit": "cells/mm^2"}, {"measurement": "morphology of corneal endothelial cells (ZO-1)", "setting": "[9]", "result": "not altered"}]}
